Data: US9734283B2, “Genomic features associated with epigenetic control regions and transgenerational inheritance of epimutations” (priority 2011, dated 2017)
“Also recorded” adds a separate entry of the source.

Legend:
[1] = tested on: Harlan Sprague Dawley rats; assay: Onset of puberty in F1-F3 generation after F0 gestational exposure; assay type: in vivo, rat
Text: At proestrus as determined by daily vaginal smears, the female rats, (90 days) were pair-mated with male rats (120 days). On the next day, the females were separated and their vaginal smears were examined microscopically and if they were sperm-positive (day 0) the rats were tentatively considered pregnant and then weighed with a digital animal weighing balance to monitor increases in body weight. Vaginal smears were continued for monitoring diestrus status in these rats until day 7. […] These pregnant rats were then given daily intraperitoneal injections of any one of the following single chemicals or mixtures with an equal volume of sesame oil (Sigma) on days E-8 through E-14 of gestation. Treatment groups were Control, Pesticide (Permethrin+DEET), Plastics (Bisphenol-A, DBP and DEHP), Dioxin (TCDD), and Jet Fuel (JP8 hydrocarbon). The pregnant female rats treated with various mixtures were designated as the F0 generation. When there was a drop in the litter size and the sex ratio of pups in F1 generation of Plastics group, another treatment group was included with only half the dose of Bisphenol-A, DBP and DEHP and this group was designated ‘Low Dose Plastics’ group.
The offspring of the F0 generation were the F1 generation. Likewise F2 and F3 generation offspring were generated. These rats were weaned from their mothers at 21 days of age. At weaning, the following weaning traits were measured; litter size, sex ratio, weaning weight (in grams), and anogenital index (AGI). […] Weaning weights of rats were measured by a digital balance. AGI was computed as the AGD in mm (from the bottom of the anal opening to the top of the genital opening) per gram of body weight at weaning. Starting at the age of 30 days for females and 35 days for males, puberty checks were performed. These checks were performed on a daily basis until puberty in each rat was confirmed. Onset of puberty for females was indicated by a clear vaginal opening, and for males it was indicated when the glans penis was able to fully extend free of the preputial fold (balano-preputial separation).

[2] = Serum hormone levels, F3 generation; assay type: in vivo, rat; details: F3 generation males
Method: Both female and male rats of F1, F2 and F3 generation at 90-120 days of age were euthanized by CO2 inhalation and cervical dislocation for dissection, collection and examination of tissues including testis, epididymis, and ovary. Body and tissue weights were measured at dissections. Blood samples were collected, allowed to clot, centrifuged and serum samples stored for hormone assays. Tissues were fixed in Bouins solution (Sigma) and 70% ethanol, then processed for paraffin embedding by standard procedures for histopathology examination. Five-micrometer sections were made and were either unstained or stained with H & E stain.

[3] = tested on: sperm promoter epigenome (DNA methylation); assay: MeDIP-Chip analysis of F3 generation sperm promoter DNA methylation; assay type: in vivo, rat; details: F3 generation sperm vs vehicle control; p<10^-5
Method: Sperm heads were separated from tails through sonication following previously described protocol (without protease inhibitors) and then purified using a series of washes and centrifugations from a total of nine F3 generation rats per treatment lineage that were 120 days of age. DNA extraction on the purified sperm heads was performed as previously described. Equal concentrations of DNA from individual sperm samples were then used to produce pools of DNA material. Three DNA pools were produced in total per treatment, which contained the same amount of sperm DNA from three animals. Therefore a total of 45 animals were used for building three DNA pools per treatment for the 4 experimental groups plus controls. These DNA pools were then used for methylated DNA immunoprecipitation (MeDIP). MeDIP was performed as follows: 6 μg of genomic DNA was subjected to series of three 20 pulse sonications at 20% amplitude and the appropriate fragment size ([…]) was verified through 2% agarose gels; the sonicated genomic DNA was resuspended in 350 ul TE and denaturated for 10 min at 95° C. and then immediately placed on ice for 5 min; 100 ul of 5×IP buffer (50 mM Na-phosphate pH7, 700 mM NaCl, 0.25% Triton X-100) was added to the sonicated and denatured DNA. […]

[4] = tested on: testicular spermatogenic cells; assay: Testicular spermatogenic cell apoptosis (TUNEL assay), F1-F3 lineage after F0 gestational exposure; assay type: in vivo, mouse; details: 129 strain, flutamide 20 mg/kg/day IP to F0 E7-E13; any age or generation analyzed; vs control
Method: (§1) The experimental design involved exposing gestating female inbred 129 strain and outbred CD-1 strain mice to daily intraperitoneal (IP) injections of vehicle (DMSO) (control) or vinclozolin at two doses, 100 mg/kg/day (V1) or 200 mg/kg/day (V2), between embryonic day 7-13 of gestation. In addition, a comparison was used with flutamide IP injections at a 20/mg/kg/day dose. The F1 generation males and females from different litters were bred to generate the F2 generation animals and F2 generation males and females from different litters were bred to generate the F3 generation animals, see Methods below. No sibling or cousin breedings occurred to avoid any inbreeding artifacts. Selected F1, F2 and F3 generation animals from postnatal 90 (P90) or 300 (P300) days of age were analyzed for testis, sperm and other pathologies as previously described.^11, 20, 21
Timed pregnant inbred 129 mice were given intraperitoneal injections with vinclozolin (100 mg/kg·day, 99% pure; ChemService, West Chester, Pa.), flutamide (20 mg/kg·day, Sigma, St. Louis, Mo.) or DMSO in sesame oil (vehicle) as controls, while timed pregnant outbred CD-1 mice were given intraperitoneal injections (IP) with vinclozolin doses: 100 mg/kg·day (V1) or 200 mg/kg·day (V2) or DMSO in sesame oil as controls.^21 Mice were given injections from embryonic day (E) E7-E13, with plug date equal to day 0. Controls were injected with vehicle (DMSO) dose and were matched with vinclozolin or flutamide treatment animals within the same mouse strain at the time of injection and were analyzed together throughout all three generations. […] Male mice were collected and analyzed between P60-P90 (P90) for all generations and treatment groups. […]

caudal epididymal sperm = assay: Epididymal sperm motility and concentration analyses; assay type: in vivo, mouse; details: primarily in the F1 generation males
Method: The sperm motility was determined using caudal epididymal sperm. The epididymis was dissected free of connective tissue and a small cut made to the cauda. The tissue was placed in 2 ml F12 culture medium containing 0.1% BSA for 10 minutes at 37° C. Fifty microliters was placed on a warm slide and gently cover-slipped. The specimen was immediately examined using phase contrast microscopy with 200×magnification. The sperm motility assays examined rapid progressive, slow progressive and non-progressive motility according to WHO category.^51 The ratio of motile sperm to the total number of sperm, including immotile sperm, was calculated. Approximately 50-100 sperm were counted per microscopic field. The procedure was repeated at least twice with a new specimen from the same epididymis. Epididymal sperm count was determined using the same epididymis according to a previously described method with some modifications.^25, 52 Briefly, the epididymis that was placed in the 2 ml of culture medium was minced. The tissue pieces were stored at 4° C. for 48 hours to immobilize the sperm. Three independent sperm samples were counted using a hemocytometer. The counts were averaged and used as a replicate in statistical analysis. The control and vinclozolin generation analysis and the control and flutamide generation analysis for an individual experiment were done at the same time. All analyses were done blinded, such that different individuals were used for collection and counting.

129 and CD-1 mice = assay: Litter size, sex ratio, body and tissue weights (toxicity); assay type: in vivo, mouse; details: transient embryonic exposure
Method: as §1
Timed pregnant inbred 129 mice were given intraperitoneal injections with vinclozolin (100 mg/kg·day, 99% pure; ChemService, West Chester, Pa.), flutamide (20 mg/kg·day, Sigma, St. Louis, Mo.) or DMSO in sesame oil (vehicle) as controls, while timed pregnant outbred CD-1 mice were given intraperitoneal injections (IP) with vinclozolin doses: 100 mg/kg·day (V1) or 200 mg/kg·day (V2) or DMSO in sesame oil as controls.^21 Mice were given injections from embryonic day (E) E7-E13, with plug date equal to day 0. Controls were injected with vehicle (DMSO) dose and were matched with vinclozolin or flutamide treatment animals within the same mouse strain at the time of injection and were analyzed together throughout all three generations. The number of treated gestating females used were: for mouse 129 strain (3 controls and 4 vinclozolin treated); for mouse 129 strain flutamide 20 mg/kg/day dose (3 controls and 3 flutamide treated); and for mouse CD-1 strain (4 control and 3 vinclozolin treated (100 mg/kg/day (V1), 3 vinclozolin 200 mg/kg/day (V2)). F1 postnatal (P)P90 males and females from different litters of control, vinclozolin and flutamide treatment groups were bred to generate the F2 generation. F2 generation mice were bred to generate the F3 generation. Breedings were carefully monitored to eliminate any sibling or cousin breeding to remove potential phenotypes as a result of inbreeding. Male mice were collected and analyzed between P60-P90 (P90) for all generations and treatment groups. The number of P90 males collected for replicates for the mouse 129 strain vinclozolin treatment group (i.e. n value) were: for F1 (8 control, 11 vinclozolin); for F2 (11 control, 22 vinclozolin); and for F3 (11 control, 11 vinclozolin). […]

[5] = transgenerational F3 generation

Structure (SMILES) | onset of puberty for females ([1]; F2 generation) | onset of puberty in males ([1]; F2 generation) | onset of puberty in females [1, 5] | onset of puberty in males [1, 5] | testosterone levels [2] | number of DMR [3] | apoptotic germ cells in the testis [4] | mean percentage of motile epididymal sperm (caudal epididymal sperm) | body weight, testis weight index, or kidney weight index (129 and CD-1 mice; F1-F3) | litter size or male/female sex ratio (129 and CD-1 mice; all generations analyzed)
Clc1cc2c(cc1Cl)Oc1cc(Cl)c(Cl)cc1O2 [dioxin, 2,3,7,8-tetrachlorodibenzo-p-dioxin] | early onset | early onset | early onset; also recorded: advanced | no effect | reduction | 50 |  |  |  | 
CC(C)C(=O)Nc1ccc([N+](=O)[O-])c(C(F)(F)F)c1 [flutamide] |  |  |  |  |  |  | no differences | reduction | no consistent transgenerational differences | no consistent transgenerational effects
